In patent US6608086B2, “Dihydropyridines and new uses thereof” (Synaptic Pharmaceutical Corporation, priority 1993, dated 2003):
Counter-ions that a name gives are not always drawn. Like-named read-outs stand apart in the source and are kept apart here.

What was measured:
L-type calcium channel = biological target: T1, L-type calcium channel (Rattus norvegicus, UniProt P22002); assay: Competition binding of [3H]nitrendipine to membrane fragments of rat cardiac muscle; conditions: [3H]nitrendipine; for Ki: read-out: pKi Ca (converted)
T1 construct: membrane fragments of rat cardiac muscle; from tissue; host or cells: rat cardiac muscle membranes
T1 sequence (P22002 whole entry, other chains not shown, the tested form may be a part): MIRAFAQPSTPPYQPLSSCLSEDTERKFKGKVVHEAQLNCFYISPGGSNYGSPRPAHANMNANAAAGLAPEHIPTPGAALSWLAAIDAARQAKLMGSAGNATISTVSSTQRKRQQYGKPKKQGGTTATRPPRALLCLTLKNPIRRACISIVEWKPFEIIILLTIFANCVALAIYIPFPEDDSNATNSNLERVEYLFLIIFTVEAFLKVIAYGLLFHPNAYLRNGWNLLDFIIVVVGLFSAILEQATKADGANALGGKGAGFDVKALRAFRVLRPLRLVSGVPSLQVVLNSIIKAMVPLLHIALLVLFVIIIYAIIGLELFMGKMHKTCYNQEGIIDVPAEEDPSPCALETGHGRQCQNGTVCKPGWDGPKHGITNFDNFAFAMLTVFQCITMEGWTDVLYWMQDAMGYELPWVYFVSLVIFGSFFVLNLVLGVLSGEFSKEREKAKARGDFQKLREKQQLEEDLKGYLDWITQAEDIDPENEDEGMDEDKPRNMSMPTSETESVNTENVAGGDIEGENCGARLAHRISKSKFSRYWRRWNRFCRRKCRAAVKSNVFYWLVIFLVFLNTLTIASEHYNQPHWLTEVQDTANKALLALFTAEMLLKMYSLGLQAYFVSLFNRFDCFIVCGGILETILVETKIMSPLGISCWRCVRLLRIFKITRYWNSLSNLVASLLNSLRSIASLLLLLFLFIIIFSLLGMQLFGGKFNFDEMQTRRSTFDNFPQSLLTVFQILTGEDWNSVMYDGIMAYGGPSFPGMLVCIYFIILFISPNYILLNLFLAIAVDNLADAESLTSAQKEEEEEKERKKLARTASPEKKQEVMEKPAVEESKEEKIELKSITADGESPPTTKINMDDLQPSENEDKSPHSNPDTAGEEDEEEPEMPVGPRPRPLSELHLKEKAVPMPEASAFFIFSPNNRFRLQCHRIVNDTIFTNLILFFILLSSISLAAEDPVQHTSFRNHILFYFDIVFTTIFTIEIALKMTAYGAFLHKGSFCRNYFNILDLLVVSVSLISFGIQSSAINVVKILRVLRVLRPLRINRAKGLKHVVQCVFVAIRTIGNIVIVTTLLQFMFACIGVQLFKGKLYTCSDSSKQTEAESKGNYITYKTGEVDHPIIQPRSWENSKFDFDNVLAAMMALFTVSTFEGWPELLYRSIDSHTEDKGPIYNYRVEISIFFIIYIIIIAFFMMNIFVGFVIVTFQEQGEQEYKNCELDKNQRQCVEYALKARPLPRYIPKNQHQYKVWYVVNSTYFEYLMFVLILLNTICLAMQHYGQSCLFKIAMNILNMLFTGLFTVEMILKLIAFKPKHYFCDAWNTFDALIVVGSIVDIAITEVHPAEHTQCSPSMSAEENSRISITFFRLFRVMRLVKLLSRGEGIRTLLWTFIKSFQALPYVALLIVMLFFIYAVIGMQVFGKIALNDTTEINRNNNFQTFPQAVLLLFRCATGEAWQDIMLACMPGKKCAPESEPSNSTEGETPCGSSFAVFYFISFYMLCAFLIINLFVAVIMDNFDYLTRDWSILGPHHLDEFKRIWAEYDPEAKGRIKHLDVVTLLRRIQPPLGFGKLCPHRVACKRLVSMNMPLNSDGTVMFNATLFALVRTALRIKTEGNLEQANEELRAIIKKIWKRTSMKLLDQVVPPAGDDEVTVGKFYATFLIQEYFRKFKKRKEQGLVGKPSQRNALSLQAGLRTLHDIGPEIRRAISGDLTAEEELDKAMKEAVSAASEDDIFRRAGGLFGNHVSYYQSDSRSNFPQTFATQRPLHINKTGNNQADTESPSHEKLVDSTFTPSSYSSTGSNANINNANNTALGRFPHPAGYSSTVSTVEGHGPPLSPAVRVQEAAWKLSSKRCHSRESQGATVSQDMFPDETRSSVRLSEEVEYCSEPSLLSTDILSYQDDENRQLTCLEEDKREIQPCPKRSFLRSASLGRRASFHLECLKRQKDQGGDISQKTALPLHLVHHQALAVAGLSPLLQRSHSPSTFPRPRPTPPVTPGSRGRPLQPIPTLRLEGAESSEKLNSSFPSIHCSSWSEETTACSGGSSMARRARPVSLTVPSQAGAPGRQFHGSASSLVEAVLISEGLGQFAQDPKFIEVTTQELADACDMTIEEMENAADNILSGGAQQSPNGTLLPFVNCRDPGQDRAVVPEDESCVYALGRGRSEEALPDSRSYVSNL
T1 sequence (P54290 25-944 partner limits assumed, other chains not shown): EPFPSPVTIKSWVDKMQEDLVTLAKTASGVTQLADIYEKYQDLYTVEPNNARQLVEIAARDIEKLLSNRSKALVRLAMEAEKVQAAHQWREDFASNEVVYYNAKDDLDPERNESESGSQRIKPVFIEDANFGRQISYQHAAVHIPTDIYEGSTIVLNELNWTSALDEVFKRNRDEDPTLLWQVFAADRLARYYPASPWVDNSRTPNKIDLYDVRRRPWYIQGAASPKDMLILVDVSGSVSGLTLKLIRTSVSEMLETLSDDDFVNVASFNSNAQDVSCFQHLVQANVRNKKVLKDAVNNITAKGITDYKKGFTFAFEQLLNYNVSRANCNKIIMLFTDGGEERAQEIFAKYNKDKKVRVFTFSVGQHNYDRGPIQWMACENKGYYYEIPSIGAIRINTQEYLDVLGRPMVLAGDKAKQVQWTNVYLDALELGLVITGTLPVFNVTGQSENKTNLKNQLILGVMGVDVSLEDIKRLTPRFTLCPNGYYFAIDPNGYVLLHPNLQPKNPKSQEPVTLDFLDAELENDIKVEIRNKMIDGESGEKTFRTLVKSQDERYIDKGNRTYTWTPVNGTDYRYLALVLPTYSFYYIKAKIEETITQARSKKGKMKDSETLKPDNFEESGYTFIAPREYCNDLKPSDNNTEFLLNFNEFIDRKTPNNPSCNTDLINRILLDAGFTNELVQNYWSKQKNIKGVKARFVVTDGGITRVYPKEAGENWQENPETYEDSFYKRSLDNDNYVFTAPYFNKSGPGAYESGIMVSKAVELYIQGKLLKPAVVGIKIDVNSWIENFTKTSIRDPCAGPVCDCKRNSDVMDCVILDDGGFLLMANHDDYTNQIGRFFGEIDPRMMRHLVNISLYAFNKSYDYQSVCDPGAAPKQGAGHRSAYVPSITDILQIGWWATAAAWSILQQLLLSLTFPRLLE
T1 sequence (P54290 945-1091 partner limits assumed, other chains not shown): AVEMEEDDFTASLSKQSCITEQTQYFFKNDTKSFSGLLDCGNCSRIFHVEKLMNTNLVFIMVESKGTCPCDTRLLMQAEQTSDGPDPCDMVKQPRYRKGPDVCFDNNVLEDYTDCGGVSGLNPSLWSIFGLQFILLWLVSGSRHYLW

[1] = biological target: T2, α1C Human Adrenergic Receptor (Homo sapiens, UniProt P35348); assay: Radioligand binding, [3H]prazosin, cloned human α1C adrenergic receptor; conditions: for Ki: read-out: pKi alpha-1 1c (converted)
T2 construct: The entire coding region of α1C (1401 bp); expressed in transfected cells
T2 sequence (P35348 1-466): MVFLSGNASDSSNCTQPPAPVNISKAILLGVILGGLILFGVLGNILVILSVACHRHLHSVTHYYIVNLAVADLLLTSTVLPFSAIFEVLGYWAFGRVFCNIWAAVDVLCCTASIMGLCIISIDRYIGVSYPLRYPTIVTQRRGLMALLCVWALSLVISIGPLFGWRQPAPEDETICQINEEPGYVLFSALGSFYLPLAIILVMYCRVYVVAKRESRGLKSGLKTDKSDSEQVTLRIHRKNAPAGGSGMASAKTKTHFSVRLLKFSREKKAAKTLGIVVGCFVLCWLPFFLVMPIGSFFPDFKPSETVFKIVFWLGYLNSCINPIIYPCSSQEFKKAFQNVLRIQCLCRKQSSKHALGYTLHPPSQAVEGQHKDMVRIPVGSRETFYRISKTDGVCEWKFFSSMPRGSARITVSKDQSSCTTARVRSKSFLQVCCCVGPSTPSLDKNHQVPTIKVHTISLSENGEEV
In short: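 Membranes from LM(tk−) cells stably expressing the cloned human α1C receptor were incubated with 0.5 nM [3H]prazosin at 37° C. for 20 min in 50 mM Tris-HCl, 1 mM MgCl2, 0.1% ascorbic acid, pH 7.5. Nonspecific binding was defined with 10 μM phentolamine, and bound ligand was separated by GF/B filtration.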

α2C receptor = biological target: T3, α2C receptor (Homo sapiens, UniProt P18825); assay: Competition binding, [3H]rauwolscine, human α2C receptor; conditions: [3H]rauwolscine; for Ki: read-out: pKi alpha-2 2c (converted)
T3 construct: host or cells: LM(tk-) cells, line L-α2C
T3 sequence (P18825 1-462): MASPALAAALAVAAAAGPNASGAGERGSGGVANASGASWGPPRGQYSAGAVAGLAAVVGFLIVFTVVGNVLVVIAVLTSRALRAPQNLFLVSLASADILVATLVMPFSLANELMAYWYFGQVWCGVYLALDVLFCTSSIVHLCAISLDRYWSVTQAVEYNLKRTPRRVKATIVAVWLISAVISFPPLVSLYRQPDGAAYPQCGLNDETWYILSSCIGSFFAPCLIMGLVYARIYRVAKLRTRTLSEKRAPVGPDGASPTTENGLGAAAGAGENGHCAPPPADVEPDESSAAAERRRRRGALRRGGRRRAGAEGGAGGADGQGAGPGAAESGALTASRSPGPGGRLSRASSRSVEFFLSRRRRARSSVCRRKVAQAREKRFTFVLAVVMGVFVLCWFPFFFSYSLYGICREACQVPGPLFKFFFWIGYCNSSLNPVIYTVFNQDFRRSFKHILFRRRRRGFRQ
In short: (§1)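 Cell lysates from stably transfected LM(tk−) lines are resuspended in 25 mM glycylglycine (pH 7.6 at room temperature), incubated to equilibrium with 0.5 nM [3H]rauwolscine plus competitor, then filtered through GF/B filters; 10 μM phentolamine defines nonspecific binding.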

α2B receptor = biological target: T4, α2B receptor (Homo sapiens, UniProt P18089); assay: Competition binding, [3H]rauwolscine, human α2B receptor; conditions: [3H]rauwolscine; for Ki: read-out: pKi alpha-2 2b (converted)
T4 construct: host or cells: LM(tk-) cells, line L-NGC-α2B
T4 sequence (P18089 1-450): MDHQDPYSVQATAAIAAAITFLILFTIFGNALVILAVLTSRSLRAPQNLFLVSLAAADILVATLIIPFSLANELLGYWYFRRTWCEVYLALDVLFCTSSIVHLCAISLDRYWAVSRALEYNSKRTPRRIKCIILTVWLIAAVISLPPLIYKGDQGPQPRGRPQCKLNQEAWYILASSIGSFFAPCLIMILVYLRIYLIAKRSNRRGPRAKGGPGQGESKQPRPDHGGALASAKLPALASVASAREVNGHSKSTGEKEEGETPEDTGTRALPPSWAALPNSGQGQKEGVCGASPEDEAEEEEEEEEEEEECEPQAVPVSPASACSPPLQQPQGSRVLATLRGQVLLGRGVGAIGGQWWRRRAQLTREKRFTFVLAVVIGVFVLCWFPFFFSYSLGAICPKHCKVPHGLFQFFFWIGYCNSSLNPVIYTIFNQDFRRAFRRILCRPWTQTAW
In short: as §1

[2] = rat cardiac muscle membranes, SEM and n in lines below
[3] = cloned human receptor in LM(tk-) cell membranes, SEM and n in lines below
[4] = LM(tk-) cell line L-α2C, SEM and n in lines below
[5] = LM(tk-) cell line L-NGC-α2B, SEM and n in lines below
[6] = rat cardiac muscle membrane fragments, L-type calcium channel
[7] = cloned human α1C receptor, LM(tk−) cell membranes
[8] = human α2C receptor, LM(tk−) cells
[9] = human α2B receptor, LM(tk−) cells

## CCC1=C(C(=O)NCCCN2CCC(c3ccccc3)CC2)C(c2ccc([N+](=O)[O-])cc2)C(C(=O)OC)=C(C)N1 (stereo not shown) [Example 74, 2-Ethyl-1,4-dihydro-5-methoxycarbonyl-6-methyl-4-(4-nitro)phenyl-3-(N-(3-(4-phenylpiperidin-1-yl)propyl)) carboxamidopyridine hydrochloride hydrate]
L-type calcium channel; [2]
  Ki: 5.25 µM
[1]; [3]
  Ki: 0.000501 µM
α2C receptor; [4]
  Ki: 0.0234 µM
α2B receptor; [5]
  Ki: 0.0891 µM

## CCC1=C(C(=O)NC2CCN(Cc3ccccc3)CC2)C(c2ccc([N+](=O)[O-])cc2)C(C(=O)OC)=C(C)N1 (stereo not shown) [Example 75, 2-Ethyl-1,4-dihydro-5-methoxycarbonyl-6-methyl-4-(4-nitro)phenyl-3-(N-(N-phenylmethyl)piperidin-4-yl)carboxamidopyridine hydrochloride]
L-type calcium channel; [2]
  Ki: 3.55 µM
[1]; [3]
  Ki: 0.794 µM
α2C receptor; [4]
  Ki: 1.23 µM
α2B receptor; [5]
  Ki: 3.09 µM

## CCC1=C(C(=O)NCCCN2CCc3cc(OC)c(OC)cc3C2)C(c2ccc([N+](=O)[O-])cc2)C(C(N)=O)=C(C)N1.Cl.O (stereo not shown) [Example 76, 5-Carboxamido-2-ethyl-1,4-dihydro-3-(N-(3-(1,2,3,4-tetrahydro-6,7-dimethoxyisoquinolin-2-yl)propyl)) carboxamido-6-methyl-4-(4-nitro)phenylpyridine hydrochloride hydrate]
L-type calcium channel; [2]
  pKi Ca: 5.49
[1]; [3]
  pKi alpha-1 1c: 6.63
α2C receptor; [4]
  pKi alpha-2 2c: 7.70
α2B receptor; [5]
  pKi alpha-2 2b: 5.64

## CCC1=C(C(=O)NCCCCN2CCC(c3ccccc3)CC2)C(c2ccc([N+](=O)[O-])cc2)C(C(N)=O)=C(C)N1.Cl.O (stereo not shown) [Example 77, 5-Carboxamido-2-ethyl-1,4-dihydro-6-methyl-4-(4-nitro)phenyl-3-(N-(4-(4-phenylpiperidin-1-yl)butyl))carboxamidopyridine hydrochloride hydrate]
L-type calcium channel; [2]
  pKi Ca: 5.94
[1]; [3]
  pKi alpha-1 1c: 8.30
α2C receptor; [4]
  pKi alpha-2 2c: 7.42
α2B receptor; [5]
  pKi alpha-2 2b: 7.08

## COC(=O)C1=C(C)NC(c2ccccc2)=C(C(=O)NCCCN2CCC(c3ccccc3)CC2)C1c1ccc([N+](=O)[O-])cc1.Cl (stereo not shown) [Example 79, 1,4-Dihydro-5-methoxycarbonyl-6-methyl-4-(4-nitro)phenyl-2-phenyl-3-(N-(3-(4-phenylpiperidin-1-yl)propyl)) carboxamidopyridine hydrochloride]
L-type calcium channel; [2]
  pKi Ca: 6.17
[1]; [3]
  pKi alpha-1 1c: 7.76
α2C receptor; [4]
  pKi alpha-2 2c: 7.21
α2B receptor; [5]
  pKi alpha-2 2b: 7.28

## CCOC(=O)C1=C(CNCCCN2CCC(c3ccccc3)(c3ccccc3)CC2)NC(C)=C(C(=O)OC)C1c1ccc([N+](=O)[O-])cc1.Cl.O (stereo not shown) [Example 90, 3-Ethoxycarbonyl-1,4-dihydro-5-methoxycarbonyl-6-methyl-4-(4-nitro)phenyl-2-(N-(3-(4,4,-diphenylpiperidin-1-yl)propyl)amino)methylpyridine, hydrochloride hydrate]
L-type calcium channel; [6]
  pKi Ca: 6.63
[1]; [7]
  pKi alpha-1 1c: 7.56
α2C receptor; [8]
  pKi alpha-2 2c: 6.79
α2B receptor; [9]
  pKi alpha-2 2b: 6.04

## COC(=O)C1=C(C)NC2=C(C(=O)N(CCCN3CCC(c4ccccc4)(c4ccccc4)CC3)C2)C1c1ccc([N+](=O)[O-])cc1.Cl.O (stereo not shown) [Example 91, 1,4,7,7-Tetrahydro-3-methoxycarbonyl-6-methyl-5-oxo-4-(4-nitrophenyl)-6-(3-(4,4-diphenylpiperidin-1-yl)) propylpyrrolo[3,4-b]pyridine, hydrochloride hydrate]
L-type calcium channel; [6]
  pKi Ca: 6.55
[1]; [7]
  pKi alpha-1 1c: 8.04
α2C receptor; [8]
  pKi alpha-2 2c: 6.31
α2B receptor; [9]
  pKi alpha-2 2b: 6.00

## CCC1=C(C(N)=O)C(c2ccc([N+](=O)[O-])cc2)C(C(=O)NCCCN2CCC(O)(c3ccccc3)CC2)=CN1CC.Cl.O (stereo not shown) [Example 101, 5-Carboxamido-1,6-diethyl-1,4-dihydro-3-{N-[3-(4-hydroxy-4-phenylpiperidin-1-yl)propyl]}carboxamido-4-(4-nitrophenyl)pyridine hydrochloride hydrate]
L-type calcium channel; [6]
  pKi Ca: 3
[1]; [7]
  pKi alpha-1 1c: 8.54
α2C receptor; [8]
  pKi alpha-2 2c: 6.04
α2B receptor; [9]
  pKi alpha-2 2b: 6.18

## CCC1=C(C(N)=O)C(c2ccc([N+](=O)[O-])cc2)C(C(=O)NCCCN2CCN(c3ccccc3)CC2)=C(CC)N1 (stereo not shown) [Example 104, 5-Carboxamido-2,6-diethyl-1,4-dihydro-4-(4-nitrophenyl)-3-{N-[3-(4-phenylpiperazin-1-yl)propyl]}carboxamido-pyridine hydrochloride hydrate]
L-type calcium channel; [6]
  Ki: 1000 µM
[1]; [7]
  Ki: 0.00324 µM
α2C receptor; [8]
  Ki: 0.0158 µM
α2B receptor; [9]
  Ki: 0.0562 µM

## CCC1=C(C(N)=O)C(c2ccc([N+](=O)[O-])cc2)C(C(=O)NCCCN2CCC(c3ccccc3)(c3ccccc3)CC2)=C(CC)N1 (stereo not shown) [Example 120, 5-Carboxamido-2,6-diethyl-1,4-dihydro-4-(4-nitrophenyl)-3-{N-[3-(4,4-diphenylpiperidin-1-yl)propyl]} carboxamidopyridine]
L-type calcium channel; [6]
  Ki: 1000 µM
[1]; [7]
  pKi alpha-1 1c: 8.97
α2C receptor; [8]
  pKi alpha-2 2c: 6.72
α2B receptor; [9]
  pKi alpha-2 2b: 6.59

## CCC1=C(C(N)=O)C(c2ccc([N+](=O)[O-])cc2)C(C(=O)NC2CCN(CCc3c[nH]c4ccccc34)CC2)=CN1CC (stereo not shown) [Example 122, 5-Carboxamido-1,4-dihydro-3-(N-{1-[2-(3-indolyl)ethyl]piperidin-4-yl}) carboxamido-1,6-diethyl-4-(4-nitrophenyl)pyridine]
L-type calcium channel; [6]
  pKi Ca: 3
[1]; [7]
  pKi alpha-1 1c: 7.71
α2C receptor; [8]
  pKi alpha-2 2c: 6.53
α2B receptor; [9]
  pKi alpha-2 2b: 7.35

## CCC1=C(C(N)=O)C(c2ccc([N+](=O)[O-])cc2)C(C(=O)NC2CCN(CCc3c[nH]c4ccccc34)CC2)=CN1CC (stereo not shown) [Example 123, 5-Carboxamido-1,6-diethyl-1,4-dihydro-3-(N-{1-[2-(3-indolyl)ethyl]piperidin-4-yl}) carboxamide-4-(4-nitrophenyl)pyridine]
L-type calcium channel; [6]
  pKi Ca: 4.53
[1]; [7]
  pKi alpha-1 1c: 8.3
α2C receptor; [8]
  pKi alpha-2 2c: 6.42
α2B receptor; [9]
  pKi alpha-2 2b: 6.87

## COc1ccccc1N1CCN(CCCNC(=O)C2=C(C)NC(C)=C(C(N)=O)C2c2ccc([N+](=O)[O-])cc2)CC1 (stereo not shown) [Example 124]
L-type calcium channel; [6]
  Ki: 1000 µM
[1]; [7]
  Ki: 0.00195 µM
α2C receptor; [8]
  Ki: 0.0447 µM
α2B receptor; [9]
  Ki: 0.2 µM
